As a reminder, the IC50 is the point on the concentration scale where inhibition reaches its midpoint. What is called melting point is the temperature of the solid-liquid transition.

Each structure is given as a SMILES string.

Data set [1] has as its target phosphodiesterase-5 (PDE5). Particulars: previously reported tadalafil analogues, introduction; cited from earlier work.
The target in the next data set is T1, recombinant human PDE5 (Homo sapiens, UniProt O76074).
T1 construct: purchased BPS Biosciences, San Diego, CA, USA
Briefly: In vitro PDE5 inhibitory activity (IMAP FP phosphodiesterase assay). Format: biochemical. As to conditions: purified PDE5, 50 nM TAMRA-cGMP, 1.5 h at 30 °C; 10 concentrations, at least two replicates; read-out: PDE5 Inhibition IC50. The procedure:
Phosphodiesterase Assay: 5 U/mL of purified PDE5 (BPS Biosciences, San Diego, CA, USA) was added to the wells of black 96-well non-binding plates. Immediately, the protein was treated with the compound or vehicle control and 50 nM TAMRA-cGMP and 50 nM Fluourescein-cAMP (Molecular Devices, Sunnyvale, CA, USA) were added to each assay well. The plates were incubated for 1.5 h at 30 °C. After incubation, the IMAP FP Phosphodiesterase Evaluation Assay (Molecular Devices, Sunnyvale, CA, USA) binding reagent was added to each well and the plates were incubated for an additional 30 min at 30 °C. FP was measured according to manufacturer’s specifications using a Biotech Synergy 4 plate reader. PDE activity was expressed by an IC50 value (50% inhibitory concentration). Data analysis was done through dose-response analysis, which was repeated at least twice to confirm the reproducibility of the IC50 values.
All the synthesized final THβC compounds were tested for their ability to inhibit recombinant human PDE5. Most of the compounds were evaluated in two steps. The first step was the determination of the percentage inhibition at a screening dose of 10 μM performed in triplicate. For compounds displaying a percentage of inhibition >50%, the IC50 was then determined by testing a range of 10 concentrations with at least two replicates per concentration (Table 2).

For the compound `CCN1CC(=O)N2[C@H](c3ccc(Cl)cc3)c3[nH]c4ccccc4c3C[C@@H]2C1=O` [Compound 2], the half-inhibitory concentration (IC50) in data set [1] is 3 nM.

Consider `CCN1CC(=O)N2[C@H](c3ccc(Br)cc3)c3[nH]c4ccccc4c3C[C@@H]2C1=O` [Compound 3], for which, in data set [1], the IC50 is 3 nM.

Consider `NCCN1CC(=O)N2[C@@H](c3ccc(Cl)cc3)c3[nH]c4ccccc4c3C[C@H]2C1=O` [Compound 6j, (6S,12aS)-2-(2-Amino-ethyl)-6-(4-chloro-phenyl)-2,3,6,7,12,12a-hexahydro-pyrazino[1’,2’:1,6]pyrido[3,4-b]indole-1,4-dione], for which the melting point is 231 to 233 °C. The IC50 at recombinant human PDE5 was above 10 µM.

For the compound `O=C1[C@@H]2Cc3c([nH]c4ccccc34)[C@@H](c3ccc(Cl)cc3)N2C(=O)CN1CCCCO` [Compound 6o, (6R,12aS)-6-(4-Chloro-phenyl)-2-(4-hydroxy-butyl)-2,3,6,7,12,12a-hexahydropyrazino[1’,2’:1,6]pyrido[3,4-b]indole-1,4-dione], the melting point fell in the range of 199 to 203 °C. In addition, the IC50 at recombinant human PDE5 is 2.31 µM.

Consider `NCCCCN1CC(=O)N2[C@@H](c3ccc(Cl)cc3)c3[nH]c4ccccc4c3C[C@@H]2C1=O` [Compound 6h, (6S,12R)-2-(4-Amino-butyl)-6-(4-chloro-phenyl)-2,3,6,7,12,12a-hexahydro-pyrazino[1’,2’:1,6]pyrido[3,4-b]indole-1,4-dione], for which the melting point was in the range of 200 to 202 °C. The IC50 on recombinant human PDE5 was found to be 3.1 µM.

For `O=C1[C@H]2Cc3c([nH]c4ccccc34)[C@@H](c3ccc(Cl)cc3)N2C(=O)CN1CCCCO` [Compound 6c, (6R,12aR)-6-(4-Chloro-phenyl)-2-(4-hydroxy-butyl)-2,3,6,7,12,12a-hexahydropyrazino[1’,2’:1,6]pyrido[3,4-b]indole-1,4-dione], the melting point was in the range of 228 to 230 °C. Besides, at recombinant human PDE5, the IC50 is 0.12 µM.

With `O=C1[C@H]2Cc3c([nH]c4ccccc34)[C@@H](c3ccc(Cl)cc3)N2C(=O)CN1CCO` [Compound 6a, (6R,12aR)6-(4-Chloro-phenyl)-2-(2-hydroxy-ethyl)-2,3,6,7,12,12a-hexahydro-pyrazino[1’,2’:1,6]pyrido[3,4-b]indole-1,4-dione], the melting point fell in the range of 230 to 233 °C. Moreover, at recombinant human PDE5, the half-maximal inhibitory concentration (IC50) is above 10 µM.

As for `O=C1[C@H]2Cc3c([nH]c4ccccc34)[C@H](c3ccc(Cl)cc3)N2C(=O)CN1CCO` [Compound 6e, (6S,12aR)-6-(4-Chloro-phenyl)-2-(2-hydroxy-ethyl)-2,3,6,7,12,12a-hexahydro-pyrazino[1’,2’:1,6]pyrido[3,4-b]indole-1,4-dione], the melting point is 202 to 206 °C. At recombinant human PDE5, the 50% inhibitory concentration (IC50) is 4.7 µM.
